US20240216401A1, “COMBINATION THERAPY BY USING AKR1C3-ACTIVATED COMPOUND WITH IMMUNE CHECKPOINT INHIBITOR” (OBI Pharma, Inc., priority 2021, published 2024)
Where “and” joins values, the source holds several entries; their conditions need not be identical. Identical values can stand only once.

How the values were obtained:
[1] = test system: T helper (TH) cells (CD45^+CD4^+ T cells) in tumor-infiltrating lymphocytes; test: Example 2: flow cytometry, percentage of TH cells in TILs; format: in vivo, Mus musculus; conditions: G3: OBI-3424 (1 mg/kg); individual animals; 1 mg/kg
Protocol: (§1) Mice were sacrificed by CO2 euthanasia at the end of the study duration, and the connective tissue around tumor was resected. The tumor samples were then weighed and cut equally into three sections if the tumor weight over 400 mg. The tumor tissue was prepared for the isolation of tumor-infiltrating lymphocytes (TILs). The rest of one section was fixed in 10% formaldehyde and embedded in paraffin; the other was stored at a temperature below −70° C.
The tumor samples were dissected into smaller fragments using scalpels and then digested with a cocktail of collagenase, DNase I, and Hyaluronidase (Collagenase #C5138, DNase I #D5025, Hyaluronidase #H6254, SigmaAldrich) for at least 2 hours.
Cells were stained with the fluorescently conjugated surface antibodies and incubated for 30 minutes at 4° C., and then resuspended in staining buffer for flow cytometric analysis. Flow cytometry was done using a Navios EX Flow Cytometer (Beckman Coulter). Data were analyzed using the Kaluza Analysis Software (Beckman Coulter).

HepG2 tumor = test: Example 2: tumor volume, tumor weight and TGI in HepG2 tumor bearing humanized mice; format: in vivo, Mus musculus; conditions: for mean tumor volume: mean±SEM; for tumor growth inhibition (TGI): Day 30 vs Day 0, alone or with anti-hPD-1 20 mg/kg
Protocol: 1. Species: Mus musculus • Strain: Advanced immunodeficiency mouse. • (NOD.CgPrkdc^scid Il2rg) • Source: Trineo Biotechnology Co., LTD.
Each group contains six mice. The human hepatocellular carcinoma cell line HepG2 were subcutaneously inoculated to the advanced immune-deficiency mice. Total of 42 mice were included in this study.
2.2. […] The subcutaneous injection volume was […].
3.1. […] The injection was performed using insulin syringe with the dosage of 0.3 mg/kg or 1 mg/kg and the injection volume was 5 mL/kg. […] The reference item was administered for G1. The procedure followed the standards of sample administration. The starting day of test item administration was denoted as the first experimental day (DO).
3.2. […] The injection was performed using insulin syringe with the dosage of 20 mg/kg and injection volume of 10 mL/kg. […] The procedure followed the standards of sample administration.
The measurement was performed from the next day of the inoculation. The tumor volumes were measured and recorded twice a week (Mon., Thur.). Tumor volume was calculated by ellipsoid equation according to the records ((major axis×minor axis×minor axis)×(π/6)).
Tumor volumes were used to calculate tumor growth inhibition (TGI) rates according to the following formula: TGI (%)=[1−(Ti−T0)/(Ci−C0)]×100, where Ti and Ci indicate the mean tumor volume in the treatment groups and vehicle group at the end of the experiment (Day 30). Whereas, T0 and C0 indicate the mean tumor volumes in the treatment group and vehicle group at the beginning of the experiment (Day 0).
as §1

[2] = G2 OBI-3424 (0.3 mg/kg), D30, group Mean
[3] = G2 OBI-3424 (0.3 mg/kg), D30, individual animals, 0.3 mg/kg
[4] = G3 OBI-3424 (1 mg/kg), D30, individual animals, 1 mg/kg

Structure (SMILES): C[C@H](OP(=O)(N1CC1)N1CC1)c1ccc([N+](=O)[O-])c(Oc2cccc(C(=O)N(C)C)c2)c1 [OBI-3424, (S)-1-(3-(3-N,N-dimethylaminocarbonyl)phenoxyl-4-mtrophenyl)-1-ethyl-N,N′-bis(ethylene)phosphoramidate]
- Foxp3^+ Treg cells (CD45^+CD4^+CD25^+Foxp3^+) Cell count (×10^5) [1]: 0.02 ×10^5 and 0.08 ×10^5 and 0.07 ×10^5 and 0.12 ×10^5 and 0.04 ×10^5 and 0.11 ×10^5
- Foxp3^+ Treg cells (CD45^+CD4^+CD25^+Foxp3^+) TH Gated % [1]: 4.64% and 2.22% and 3.57% and 2.45% and 1.41% and 3.92%
- Foxp3^+ Treg cells (CD45^+CD4^+CD25^+Foxp3^+) Total % [1]: 0.07% and 0.06% (2×) and 0.10% and 0.12% and 0.13%
- PD-1^+ TH cells (CD45^+CD4^+ PD-1^+) Cell count (×10^5) [1]: 7.02 ×10^5 and 29.44 ×10^5 and 11.76 ×10^5 and 23.76 ×10^5 and 18.24 ×10^5 and 27.01 ×10^5
- PD-1^+ TH cells (CD45^+CD4^+ PD-1^+) TH Gated % [1]: 96.86% and 94.38% and 95.57% and 98.57% and 97.07% and 99.62%
- PD-1^+ TH cells (CD45^+CD4^+ PD-1^+) Total % [1]: 24.22% and 23.33% and 16.66% and 24.05% and 24.52% and 33.34%
- TH cells (CD45^+CD4^+) CD45^+ Gated % [1]: 37.76% and 41.33% and 35.50% and 40.55% and 38.34% and 57.62%
- TH cells (CD45^+CD4^+) Cell count (×10^5) [1]: 7.25 ×10^5 and 31.20 ×10^5 and 12.31 ×10^5 and 24.11 ×10^5 and 18.79 ×10^5 and 27.11 ×10^5
- TH cells (CD45^+CD4^+) Total % [1]: 25.00% and 24.72% and 17.44% and 24.40% and 25.26% and 33.47%
- dose relation of reduction in mean tumor volume (in words) (HepG2 tumor; Example 2, D30, OBI-3424 0.3 mg/kg and 1 mg/kg): dose-related reduction
- mean tumor volume (HepG2 tumor; Example 2, D30, OBI-3424 0.3 mg/kg IV, alone (G2) or with anti-hPD-1 20 mg/kg IP (G5)): 716.44±31.12 mm^3
- mean tumor volume (HepG2 tumor; Example 2, D30, OBI-3424 1 mg/kg IV, alone (G3) or with anti-hPD-1 20 mg/kg IP (G6)): 216.90±22.20 mm^3
- mean tumor volume compared with vehicle (in words) (HepG2 tumor; Example 2, D30, vs vehicle (G1), OBI-3424 high-dose 1 mg/kg (G3), anti-hPD-1 20 mg/kg (G4), combinations G5-G7): significantly suppressed
- tumor weight compared with vehicle (in words) (HepG2 tumor; Example 2, Day 30, OBI-3424 low-dose (G2), high-dose (G3), combinations G5-G7 vs vehicle (G1)): significantly suppressed
- tumor growth inhibition (TGI) (HepG2 tumor; Example 2, high-dose OBI-3424 (1 mg/kg)): 113.27%
- tumor growth inhibition (TGI) (HepG2 tumor; Example 2, low-dose OBI-3424 (0.3 mg/kg)): 27.82%
- anti-tumor effect (conclusion in words) (HepG2 tumor; Example 2, HepG2 humanized mouse model, combination: high-dose OBI-3424): dose-dependent trend with anti-tumor activity
- TGI (HepG2 tumor; G2 OBI-3424 (0.3 mg/kg)): 27.82%
- Tumor volume (HepG2 tumor; G2 OBI-3424 (0.3 mg/kg), D0, group Mean): 293.3 mm^3
- Tumor volume (HepG2 tumor; G2 OBI-3424 (0.3 mg/kg), D0, individual animals, 0.3 mg/kg): 280.0 mm^3 and 279.4 mm^3 and 226.0 mm^3 and 353.6 mm^3 and 317.7 mm^3 and 303.0 mm^3
- Tumor volume (HepG2 tumor; G2 OBI-3424 (0.3 mg/kg), D2, group Mean): 300.8 mm^3
- Tumor volume (HepG2 tumor; G2 OBI-3424 (0.3 mg/kg), D2, individual animals, 0.3 mg/kg): 283.9 mm^3 and 281.1 mm^3 and 230.6 mm^3 and 354.0 mm^3 and 321.0 mm^3 and 334.4 mm^3
- Tumor volume (HepG2 tumor; G2 OBI-3424 (0.3 mg/kg), D6, group Mean): 307.8 mm^3
- Tumor volume (HepG2 tumor; G2 OBI-3424 (0.3 mg/kg), D6, individual animals, 0.3 mg/kg): 289.0 mm^3 and 293.9 mm^3 and 241.0 mm^3 and 356.0 mm^3 and 330.5 mm^3 and 336.3 mm^3
- Tumor volume (HepG2 tumor; G2 OBI-3424 (0.3 mg/kg), D9, group Mean): 388.7 mm^3
- Tumor volume (HepG2 tumor; G2 OBI-3424 (0.3 mg/kg), D9, individual animals, 0.3 mg/kg): 375.6 mm^3 and 367.0 mm^3 and 395.2 mm^3 and 367.9 mm^3 and 388.9 mm^3 and 437.7 mm^3
- Tumor volume (HepG2 tumor; G2 OBI-3424 (0.3 mg/kg), D13, group Mean): 509.0 mm^3
- Tumor volume (HepG2 tumor; G2 OBI-3424 (0.3 mg/kg), D13, individual animals, 0.3 mg/kg): 569.5 mm^3 and 452.6 mm^3 and 528.9 mm^3 and 388.3 mm^3 and 590.7 mm^3 and 524.2 mm^3
- Tumor volume (HepG2 tumor; G2 OBI-3424 (0.3 mg/kg), D16, group Mean): 617.1 mm^3
- Tumor volume (HepG2 tumor; G2 OBI-3424 (0.3 mg/kg), D16, individual animals, 0.3 mg/kg): 714.1 mm^3 and 528.0 mm^3 and 714.4 mm^3 and 405.8 mm^3 and 749.1 mm^3 and 591.5 mm^3
- Tumor volume (HepG2 tumor; G2 OBI-3424 (0.3 mg/kg), D20, group Mean): 702.3 mm^3
- Tumor volume (HepG2 tumor; G2 OBI-3424 (0.3 mg/kg), D20, individual animals, 0.3 mg/kg): 808.4 mm^3 and 658.4 mm^3 and 854.0 mm^3 and 419.5 mm^3 and 751.9 mm^3 and 721.3 mm^3
- Tumor volume (HepG2 tumor; G2 OBI-3424 (0.3 mg/kg), D23, group Mean): 744.1 mm^3
- Tumor volume (HepG2 tumor; G2 OBI-3424 (0.3 mg/kg), D23, individual animals, 0.3 mg/kg): 889.2 mm^3 and 661.3 mm^3 and 890.1 mm^3 and 297.5 mm^3 and 842.6 mm^3 and 884.2 mm^3
- Tumor volume (HepG2 tumor; G2 OBI-3424 (0.3 mg/kg), D27, group Mean): 717.3 mm^3
- Tumor volume (HepG2 tumor; G2 OBI-3424 (0.3 mg/kg), D27, individual animals, 0.3 mg/kg): 926.9 mm^3 and 527.6 mm^3 and 909.1 mm^3 and 205.1 mm^3 and 848.5 mm^3 and 886.5 mm^3
- Tumor volume (HepG2 tumor; [2]): 716.4 mm^3
- Tumor weight (HepG2 tumor; [2]): 304.45 mg
- Tumor volume (HepG2 tumor; [3]): 1012. mm^3 and 468.2 mm^3 and 882.8 mm^3 and 181.5 mm^3 and 850.4 mm^3 and 903.5 mm^3
- Tumor weight (HepG2 tumor; [3]): 445.50 mg and 223.90 mg and 327.90 mg and 63.40 mg and 449.00 mg and 317.00 mg
- TGI (HepG2 tumor; G3 OBI-3424 (1 mg/kg)): 113.27%
- Tumor volume (HepG2 tumor; G3 OBI-3424 (1 mg/kg), D0, individual animals, 1 mg/kg): 290.8 mm^3 and 318.0 mm^3 and 286.8 mm^3
- Tumor volume (HepG2 tumor; G3 OBI-3424 (1 mg/kg), D2, individual animals, 1 mg/kg): 295.5 mm^3 and 322.4 mm^3 and 292.9 mm^3
- Tumor volume (HepG2 tumor; G3 OBI-3424 (1 mg/kg), D6, individual animals, 1 mg/kg): 297.0 mm^3 and 328.4 mm^3 and 304.4 mm^3
- Tumor volume (HepG2 tumor; G3 OBI-3424 (1 mg/kg), D9, individual animals, 1 mg/kg): 337.5 mm^3 and 468.5 mm^3 and 334.0 mm^3
- Tumor volume (HepG2 tumor; G3 OBI-3424 (1 mg/kg), D13, individual animals, 1 mg/kg): 341.3 mm^3 and 492.3 mm^3 and 362.5 mm^3
- Tumor volume (HepG2 tumor; G3 OBI-3424 (1 mg/kg), D16, individual animals, 1 mg/kg): 359.9 mm^3 and 556.8 mm^3 and 465.2 mm^3
- Tumor volume (HepG2 tumor; G3 OBI-3424 (1 mg/kg), D20, individual animals, 1 mg/kg): 345.0 mm^3 and 552.1 mm^3 and 465.2 mm^3
- Tumor volume (HepG2 tumor; G3 OBI-3424 (1 mg/kg), D23, individual animals, 1 mg/kg): 260.7 mm^3 and 544.3 mm^3 and 419.2 mm^3
- Tumor volume (HepG2 tumor; G3 OBI-3424 (1 mg/kg), D27, individual animals, 1 mg/kg): 246.4 mm^3 and 426.0 mm^3 and 295.9 mm^3
- Tumor weight (HepG2 tumor; G3 OBI-3424 (1 mg/kg), D30, group Mean): 84.40 mg
- Tumor volume (HepG2 tumor; [4]): 185.2 mm^3 and 295.5 mm^3 and 215.0 mm^3
- Tumor weight (HepG2 tumor; [4]): 62.40 mg and 101.90 mg and 105.20 mg and 90.30 mg and 69.80 mg and 76.80 mg
